According to US20090253789A1, “Preventive/Remedy for Arteriosclerotic Disease and Method of Evaluating Therapeutic Procedure” (Takeda Pharmaceutical Company Limited, priority 2006, published 2009):

Experiments:
atherosclerotic lesion [1] = details: pre-clinical tests; accompanied with reduction in plasma cholesterol level; cited from earlier work
[2] = clinical test; cited from earlier work
ACAT = biological target: T1, ACAT (Oryctolagus cuniculus, UniProt A0A5F9CPP4); assay: Atherosclerotic lesion ACAT enzyme inhibition test (3-day oral administration, lesion homogenate, correction markers); type: in vivo, WHHL rabbit
T1 construct: to obtain a homogenate, which was used as an “atherosclerotic lesion sample” for a biochemical measurement; from tissue; host or cells: aortic atherosclerotic lesion tissue homogenate of WHHL rabbits dosed orally for 3 days
T1 sequence (A0A5F9CPP4 1-555): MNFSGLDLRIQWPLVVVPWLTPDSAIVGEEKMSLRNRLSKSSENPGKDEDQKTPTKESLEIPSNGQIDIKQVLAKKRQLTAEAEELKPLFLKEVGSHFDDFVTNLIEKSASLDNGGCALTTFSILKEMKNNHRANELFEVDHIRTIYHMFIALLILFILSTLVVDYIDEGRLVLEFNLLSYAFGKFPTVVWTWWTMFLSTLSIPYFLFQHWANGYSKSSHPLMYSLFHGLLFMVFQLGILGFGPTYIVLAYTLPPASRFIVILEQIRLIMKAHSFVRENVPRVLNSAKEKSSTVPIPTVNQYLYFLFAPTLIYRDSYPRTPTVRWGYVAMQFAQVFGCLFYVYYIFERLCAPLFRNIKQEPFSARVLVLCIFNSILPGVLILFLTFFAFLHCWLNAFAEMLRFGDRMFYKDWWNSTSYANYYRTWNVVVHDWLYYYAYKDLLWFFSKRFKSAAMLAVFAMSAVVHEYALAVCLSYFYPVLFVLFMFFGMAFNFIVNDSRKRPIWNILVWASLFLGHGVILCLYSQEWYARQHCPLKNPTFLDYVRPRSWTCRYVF
From the text: Using a rabbit having an atherosclerotic lesion in the aorta due to rearing with a high cholesterol diet, or due to hereditary hyperlipemia, etc., an ACAT inhibitor or a medium was orally administered once a day for 3 days. About two hours after final administration, the rabbit was anesthetized and killed by exsanguination, and the aorta was removed, frozen and stored. After thawing the frozen-stored aorta, a tissue section of an atherosclerotic lesion residing site was corrected using a biopsy trephine. […]
An ACAT reaction was measured by mixing a reaction buffer (0.19 M Tris-HCl pH 7.5, 3 mM EDTA, cholesterol 0.2 mg/ml, BSA 3 mg/ml), the aforementioned “atherosclerotic lesion sample”, and a substrate solution ([3H]Oleoyl-CoA), reacting the mixture with stirring at 37° C. for 30 minutes, fractionating a lipid fraction by thin layer chromatography, and measuring radioactivity (DPM) incorporated into a cholesteryl ester fraction with a liquid scintillation counter. Radioactivity of a blank sample (STE buffer instead of the homogenate was added) was also measured, and a value obtained by subtracting radioactivity of the blank from radioactivity of each sample was adopted as the ACAT enzyme activity. […]

[3] = Anti-atherosclerotic activity test in WHHL rabbit: plasma total cholesterol exposure amount; type: in vivo; details: for Plasma total cholesterol exposure amount during administration period: average ± standard error, control 6194 ± 511, no significant difference (Williams' test)
Description: (§1) Using 7-month-old WHHL rabbits, the compound X (3, 10 mg/kg/day) was orally administered once a day for 12 weeks and influence on atherosclerosis was examined. Before drug administration, aortic atherosclerosis was tested by intravascular ultrasound (IVUS), and WHHL rabbits were grouped based on the aortic atherosclerosis, plasma cholesterol level and sex.
(§2) Before initiation of administration, and 1, 2, 4, 6, 8, 10, 12 weeks from administration, blood samples were collected, a plasma total cholesterol level of each sample was measured using a biochemical automatic analysis apparatus and a plasma total cholesterol exposure amount during the administration period was obtained by a trapezoid formula. After administration, the thoracic aorta was removed, and a cholesterol ester content as an index of atherosclerosis was measured.

atherosclerotic lesion [4] = assay: Anti-atherosclerotic activity test in WHHL rabbit: cholesterol ester content of thoracic aorta; type: in vivo
Description: as §1, §2

## CC(C)c1cc(C(C)C)c(CC(=O)NS(=O)(=O)Oc2c(C(C)C)cccc2C(C)C)c(C(C)C)c1 [Avasimibe]
Atherosclerotic lesion [1]
  anti-atherosclerotic activity: cholesterol ester in an atherosclerotic lesion: lowering a cholesterol ester in an atherosclerotic lesion
[2]
  anti-atherosclerotic activity: no effect was observed
  effect on blood lipid level: certain effect

## Monopotassium bis((2E)-3-{3-[7-chloro-3-(2-{[4-fluoro-2-(trifluoromethyl)phenyl]amino}-2-oxoethyl)-6-methyl-2-oxo-2H-chromen-4-yl]phenyl}acrylate) trihydrate [compound X]
ACAT; 3 mg/kg orally once a day for 3 days, vs control group
  inhibition of ACAT enzyme activity, LAL correction: significant inhibition
ACAT; 3 and 10 mg/kg, administration for 3 days
  inhibition of atherosclerotic lesion ACAT activity utilizing the correction marker: inhibited the atherosclerotic lesion ACAT activity of the WHHL rabbit dose-dependently
[3]; 3 mg/kg/day orally for 12 weeks
  Plasma total cholesterol exposure amount during administration period: 5356 ± 410 mg · week/dL
[3]; 10 mg/kg/day orally for 12 weeks
  Plasma total cholesterol exposure amount during administration period: 4957 ± 490 mg · week/dL
[3]; 3 and 10 mg/kg/day orally for 12 weeks
  effect on plasma total cholesterol exposure amount during the administration period (in words): only a reduction tendency
Atherosclerotic lesion [4]; 3 and 10 mg/kg, long-term treatment
  anti-atherosclerotic activity by long-term treatment: clear anti-atherosclerotic activity
Atherosclerotic lesion [4]; 3 and 10 mg/kg/day orally for 12 weeks (FIG. 10)
  cholesterol ester content of the thoracic aorta: significantly reduced
